Data: article PMC12164290, “Immune-modulatory effects of Spindlin-1 inhibitors” (Clinical and Experimental Immunology, 2025)
pIC50: −log10 of the molar value. Where two headings read alike, the source gives them in different places.

What was measured:
[1] = system: primary human immune cells; experiment: viability of primary human immune cells, formazan-based Orangu assay (ranges over cell types); settings: 48 h
Method: (§1) 2 × 10^5 CD4^+ T cells, 1 × 10^5 B cells, 1 × 10^5 monocytes, 1 × 10^5 M1 MdMs, or 1 × 10^5 M2 MdMs were treated with A366, MS31, or vehicle for 48 h. The viability was determined with the Orangu^TM assay as described by the manufacturer.

monocytes = experiment: viability assay (Orangu, formazan-based), monocytes; assay type: cell-based, human; settings: 48 h, n = 3, read-out: Monocyte viability IC50
Method: as §1

M1 MdMs [2] = experiment: viability assay (Orangu, formazan-based), M1 MdM; assay type: cell-based, human; settings: 48 h, n = 3
Method: as §1

M2 MdMs [3] = experiment: viability assay (Orangu, formazan-based), M2 MdM; assay type: cell-based, human; settings: 48 h, n = 3
Method: as §1

CD4+ T cells [4] = experiment: viability assay (Orangu, formazan-based), CD4+ T cells; parameters: species or system human; settings: 48 h, n = 3, read-out: T cell viability IC50
Method: as §1

B cells [5] = experiment: viability assay (Orangu, formazan-based), B cells; parameters: species or system human; settings: 48 h, n = 3, read-out: B cell viability IC50
Method: as §1

M1 macrophages = experiment: polarization of MdMs to M1 macrophages (surface markers, cytokines, viability); assay type: cell-based, human
Method: (§2) The generation of monocyte-derived macrophages (MdMs) was performed as previously described. Briefly, 0.5 × 10^6 CD14^+ cells/well were differentiated to macrophages in the presence of 10 ng/ml M-CSF (for M2 macrophages) or 10 ng/ml GM-CSF (for M1 macrophages) for 7 days. The macrophages were polarized in the presence of different concentrations of A366, MS31, or vehicle (DMSO) in 48-well plates. After pre-incubation with test substances or DMSO for 30 min, stimulants for differentiation were added: 20 ng/ml IFNγ for M1 macrophages and 10 ng/ml IL4 for M2 macrophages and incubated for 48h and 24h, respectively.
(§3) For analysis of the surface markers, 1.5–2*10^5 cells of each sample were blocked with human FcR Blocking Reagent (15 min, 4 °C). Afterwards, samples were stained with up to 7 µl of a mixture of different surface marker antibodies (15 min, 4 °C) and 250 µl of 10 % FCS/PBS were added. After centrifugation (300 g, 5 min, 4 °C) samples were resuspended in 100 µl PBS and measured with MACSQuant® Analyzer 10 flow cytometer. For M1-/M2-MdMs, anti-CD86, anti-CD14, anti-HLA-DR, anti-CD206, anti-CD80, anti-TREM2, and anti-CD163 were used. For CD4^+ T cells, anti-CD69, anti-CD45RO, anti-CD134, anti-CD154, anti-CD3, anti-CD25 were employed. For B cells, anti-CD27, anti-CD19, and anti-CD38 were applied. Zombie Aqua™ Fixable Viability Kit (1:500 dilution, BioLegend, San Diego, CA, USA) (for CD4^+ T cells, macrophages) or Annexin/PE staining (BD Biosciences, Heidelberg, Germany) (for B cells) was used to discriminate living and dead cells according to the manufacturers protocol. For T cell and B cell proliferation assays, freshly isolated T and B cells were stained with CTV and the decrease in CTV as a result of cell proliferation was detected by flow cytometry. CTV positive cells were gated in high proliferating cells (low CTV level), medium proliferating cells (medium CTV level), and nonproliferating cells (high CTV level). Plasmablasts were characterized as CD27^+CD38^+ cells, naïve B as CD19^+CD27^lowCD38^med, and memory B cells as CD19^+CD27^med CD38^low (Supplementary Fig. 1). For M1 MdMs, the cell population was gated using FSC/SSC channel, for M2 MdMs, the CD163^med population was gated since IL4 downregulates CD163 [18] and for CD4^+ T cells, CD3^+CD25^+ cells were gated. Geometric mean of the fluorescent intensity was calculated using FlowJo software V10 (Treestar, Ashland, TN, USA). Fold induction of surface marker expression was calculated using the DMSO-treated cells as control.
(§4) For determination of cytokine concentrations (IL10, IL17, IL8, IL6, IFNγ, CCL2) in the supernatant of humane immune cells, cytometric bead array (BD Biosciences, Heidelberg, Germany) was used. For the detection of IgG, IgA, PGE2, CCL18, and CCL17 an ELISA was performed. The cytometric bead arrays and the ELISAs were performed according to the manufacturers protocol.

M2 macrophages = experiment: polarization of MdMs to M2 macrophages (surface markers, cytokines, viability); assay type: cell-based, human
Method: as §2, §3, §4

M1 MdMs [6] = experiment: energy metabolism (Seahorse OCR/ECAR), M1 MdMs; assay type: cell-based, human; settings: polarized 48 h in presence of compound
Method: (§5) The energy metabolism was determined as described previously. Briefly, for the analysis of the extracellular acidification rate (ECAR) and the oxygen consumption rate (OCR) for human M1 MdMs, M2 MdMs, and activated B-/ CD4^+ T cells, the Seahorse XFe96 FluxPak (Agilent, Waldbronn, Germany) was used as recommended by the supplier. MdMs were polarized to M1 or M2 MdMs, B- and CD4^+ T cells were activated in the presence of A366, MS31, or vehicle (DMSO) for 48 h (M1 MdMs), 24 h (M2 MdMs) or 5 days (T/B cells). Cells were washed with Seahorse XF RPMI medium pH 7.4 (Agilent, Waldbronn, Germany), and OCR and ECAR were measured for a period of 120 min using the Seahorse XFe96 Analyzer (Agilent, Waldbronn, Germany) and analyzed by Wave Software (Agilent, Waldbronn, Germany). For T/B cells, the values after 50 min of stimulation of samples were related to the unstimulated control sample. For macrophages, the values at 50 min in treated samples were related to the vehicle control.

M2 MdMs [7] = experiment: energy metabolism (Seahorse OCR/ECAR), M2 MdMs; assay type: cell-based, human; settings: polarized 24 h in presence of compound
Method: as §5

CD4+ T cells [8] = experiment: CD4+ T cell activation with anti-CD3/anti-CD28 (proliferation, surface markers, cytokines, viability); assay type: cell-based
Method: CTV staining was performed according to the protocol of supplier.
For analysis of the surface markers, 1.5–2*10^5 cells of each sample were blocked with human FcR Blocking Reagent (15 min, 4 °C). Afterwards, samples were stained with up to 7 µl of a mixture of different surface marker antibodies (15 min, 4 °C) and 250 µl of 10 % FCS/PBS were added. After centrifugation (300 g, 5 min, 4 °C) samples were resuspended in 100 µl PBS and measured with MACSQuant® Analyzer 10 flow cytometer. […] For CD4^+ T cells, anti-CD69, anti-CD45RO, anti-CD134, anti-CD154, anti-CD3, anti-CD25 were employed. […] Zombie Aqua™ Fixable Viability Kit (1:500 dilution, BioLegend, San Diego, CA, USA) (for CD4^+ T cells, macrophages) or Annexin/PE staining (BD Biosciences, Heidelberg, Germany) (for B cells) was used to discriminate living and dead cells according to the manufacturers protocol. For T cell and B cell proliferation assays, freshly isolated T and B cells were stained with CTV and the decrease in CTV as a result of cell proliferation was detected by flow cytometry. CTV positive cells were gated in high proliferating cells (low CTV level), medium proliferating cells (medium CTV level), and nonproliferating cells (high CTV level). […] For M1 MdMs, the cell population was gated using FSC/SSC channel, for M2 MdMs, the CD163^med population was gated since IL4 downregulates CD163 [18] and for CD4^+ T cells, CD3^+CD25^+ cells were gated. Geometric mean of the fluorescent intensity was calculated using FlowJo software V10 (Treestar, Ashland, TN, USA). Fold induction of surface marker expression was calculated using the DMSO-treated cells as control.

B cells [9] = experiment: B cell activation with IL-21, sCD40L, CpG, anti-IgM (proliferation, plasmablasts, IgG/IgA, viability); assay type: cell-based, human; settings: for B cell proliferation / formation of plasmablasts / release of IgA / release of IgG: IL-21, sCD40L, CpG, anti-IgM, 5 days, A366 and MS31 concentration-dependent
Method: B cells were activated as described previously. Briefly, 1.25 × 10^5 B cells (stained with 0.25 µM CTV) per well were seeded in a 48 well plate and pretreated with A366, MS31, rapamycin, or vehicle (DMSO) for 30 min and then stimulated with 2.5 μg/ml CpG, 5 μg/ml unconjugated goat antihuman IgM F(ab′)2 fragments, 1 μg/ml sCD40L, and 50 ng/ml recombinant human IL-21 for 5 days.
as §3, §4

[10] = system: Spindlin-1-H3K4me3-interaction; parameters: method as in PMID 31260300, PMID 34492335; settings: cited from earlier work
B cells [11] = experiment: energy metabolism (Seahorse OCR/ECAR), activated B cells; assay type: cell-based, human; settings: 5 days
Method: as §5

[12] = M1 polarization, 48 h, flow cytometry
[13] = M1 polarization, 48 h, supernatant
[14] = M2 polarization, 24 h, supernatant

COc1c(CN)cc(CN)cc1OCCCN1Cc2ccccc2C1 [MS31]
pIC50 ([1]; range for CD4+ T cells and B cells, read-out: viability IC50 values): 4.66 to 4.96 | pIC50 ([1]; range over all immune cell types tested, read-out: IC50, immune cell type-dependent cytotoxicity): 2.51 to 4.96 | pIC50 (monocytes): 4.38 | pIC50 (M1 MdMs [2]): 2.51 | pIC50 (M2 MdMs [3]): 4.05 | pIC50 (CD4+ T cells [4]): 4.66 | pIC50 (B cells [5]): 4.96 | overall effect on M1 polarization (M1 macrophages): may shift M1 to an M2 phenotype | cytotoxicity during polarization of M1 macrophages (M1 macrophages; 0–50 µM, 48 h, zombie staining): did not induce cytotoxicity | CD163 surface marker expression (M1 macrophages; [12]): slightly increased | TREM2 surface marker expression (M1 macrophages; [12]): slightly increased | release of IFNγ (M1 macrophages; [13]): upregulated the release of IFNγ more pronouncedly | release of IL8 (M1 macrophages; [13]): significantly inhibited | overall effect on M2 polarization (M2 macrophages): may weaken M2 polarization | cytotoxicity during polarization of macrophages to M2 MdMs (M2 macrophages; 0–50 µM, zombie staining): did not induce cytotoxicity | CD86 surface marker expression (M2 macrophages; M2 polarization, 24 h, flow cytometry): reduced | CCL2 release (M2 macrophages; [14]): reduced | CCL18 release (M2 macrophages; [14]): increased | IL10 release (M2 macrophages; [14]): reduced | PGE2 release (M2 macrophages; [14]): reduced | energy metabolism (OCR, ECAR) of M1 MdMs (M1 MdMs [6]): did not affect | OCR in M2 MdMs (M2 MdMs [7]): only slightly increased | cytotoxic effects on CD4+ T cells (CD4+ T cells [8]; 0–10 µM, 5 days): no cytotoxic effects | CD134 expression (CD4+ T cells [8]; activated CD4+ T cells, 5 days): increased | activation of CD4+ T cells (CD25 positive, CD25 and CD69 positive cells, CD69) (CD4+ T cells [8]; anti-CD3/anti-CD28, 5 days): did not influence | proliferation of CD4+ T cells (CD4+ T cells [8]; anti-CD3/anti-CD28, 5 days, CTV): did not affect | B cell activation (proliferation, plasmablast formation, release of immunoglobulins A and G) (B cells [9]; 2.5 µM): clearly prevented | B cell proliferation (B cells [9]): markedly reduced | formation of plasmablasts (B cells [9]): markedly reduced | release of IgA (B cells [9]): markedly reduced | release of IgG (B cells [9]): markedly reduced | pIC50 [10]: 7.11

CO[C@H]1C[C@@H]2CC[C@@H](C)[C@@](O)(O2)C(=O)C(=O)N2CCCC[C@H]2C(=O)O[C@H]([C@H](C)C[C@@H]2CC[C@@H](O)[C@H](OC)C2)CC(=O)[C@H](C)/C=C(\C)[C@@H](O)[C@@H](OC)C(=O)[C@H](C)C[C@H](C)/C=C/C=C/C=C/1C [rapamycin]
B cell proliferation (B cells [9]): inhibit | formation of plasmablasts (B cells [9]): inhibit | release of IgA (B cells [9]): inhibit | release of IgG (B cells [9]): inhibit | energy metabolism of activated B cells (OCR, ECAR) (B cells [11]): induced both glycolysis and oxidative phosphorylation
